Results: patent US20260216326A1, “METHODS OF TREATING INFLAMMATORY DISEASES WITH COMBINATION OF TL1A INHIBITORS AND S1PR INHIBITORS” (Prometheus Biosciences, Inc., priority 2022, published 2026)
“Also recorded” adds a separate entry of the source. Like-named read-outs stand apart in the source and are kept apart here.

What was measured:
IL10−/− mice = test: IL10−/− model of murine colitis; assay type: in vivo, mouse
Protocol: IL10−/− and WT mice on the C57BL/6 background are monitored for body weight every other day. IL10−/− mice begins to manifest symptoms of colitis by 4 weeks of age compared with WT mice, including diarrhea and weight loss greater than 5%. Treatment protocols are initiated when the mice are between 14-18 weeks of age.
By 14−18 weeks of age, IL10−/− mice develop sufficiently severe symptoms of disease to being testing therapeutic treatments. For four weeks, mice are treated weekly with Intraperitoneal (I.P.) anti-TL1a injection and daily with oral FTY720 (S1PR inhibitor, anti-S1PR) according to Table 61. Group 1 serves as the naïve control and Group 2 is treated with isotype and vehicle controls. Groups 3 and 4 test the high dose of either TL1a or S1PR blockade, respectively. Groups 5 and 6 test the low dose of either TL1a or S1PR blockade. Groups 7 and 8 test the high and low dose combination therapies, respectively.
(§1) At day 28 after initiation of treatment, mice are anaesthetized and bled by cardiac puncture. Blood is kept on ice for 30 minutes and then spun down to separate the serum, which is stored at −80 C for cytokine measurement by MSD. After the terminal bleed, mice are euthanized by CO2 overdose per IACUC guidelines. Colons are harvested for each mouse and measured for length and weight. 1 cm of the middle colon is collected into RNAlater, and kept at room temperature for 2 hours prior to freezing at −80 C. The colonic tissue preserved in RNAlater is processed for mRNA and subjected to bulk RNA sequencing and standard differential gene expression analysis. The remainder of the proximal and distal colon is preserved in 10% NBF at room temperature for 48 hours prior to moving to 70% ethanol. These preserved colonic tissues are sectioned and stained by H&E prior to analysis by a veterinary pathologist for clinical signs of colitis.

[1] = tested on: Rag2−/− mice receiving CD4+CD45RB+ T cells; test: T cell transfer model of murine colitis; assay type: in vivo, mouse
Excerpt: The murine T cell transfer model of colitis is used to test the synergistic effect of blocking TL1A and S1P on the development of colitis using a mouse-specific TL1A antibody (anti-TL1A) and S1PR functional antagonist (FTY720). To initiate colitis, CD4+CD45RB+ T cells from the spleens of C57BL/6 mice are sorted to >95% purity and transferred by I.V. injection to Rag2−/− mice lacking mature B and T cells (0.5e6 cells/mouse), which are then randomized by weight on day 0. Mice are weighed and monitored for signs of disease every other day for 7 weeks.
One day prior to the initiation of disease (day-1) and weekly throughout the course of the experiment, mice are treated with a single I.P. injection of anti-TL1A in 0.2 ml total volume according to Table 64. In addition, FTY720 or the appropriate vehicle control is orally dosed daily according to Table 64. Group 1 serve as the naïve control and Group 2 is treated with isotype control antibodies. Groups 3 and 4 test the high dose of either anti-TL1A or FTY720, respectively. Groups 5 and 6 test the low dose of either anti-TL1A or FTY720. Groups 7 and 8 test the high and low dose combination therapies, respectively.
as §1, with “49” for “28”, “disease induction with CD4+CD45RB+ T cell transfer,” for “initiation of treatment,”, “and” for “and standard”, “These preserved colonic tissues are sectioned and stained by H&E prior to analysis by a veterinary pathologist for clinical signs of colitis.” left out

S1P4 [2] = target: T1, S1P4 (Homo sapiens, UniProt O95977); conditions: cited from earlier work
T1 sequence (O95977 1-384): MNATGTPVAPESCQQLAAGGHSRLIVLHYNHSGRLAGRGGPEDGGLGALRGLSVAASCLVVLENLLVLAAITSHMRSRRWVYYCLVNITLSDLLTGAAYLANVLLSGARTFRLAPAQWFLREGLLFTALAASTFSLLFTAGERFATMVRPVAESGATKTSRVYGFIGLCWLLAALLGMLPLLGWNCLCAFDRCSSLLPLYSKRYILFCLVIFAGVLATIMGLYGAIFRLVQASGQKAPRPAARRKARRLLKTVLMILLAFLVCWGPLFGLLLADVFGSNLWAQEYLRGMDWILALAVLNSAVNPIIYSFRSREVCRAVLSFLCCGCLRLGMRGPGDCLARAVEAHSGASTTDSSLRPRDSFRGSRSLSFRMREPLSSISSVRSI

S1P2 = S1P2 (Homo sapiens, UniProt O95136); conditions: cited from earlier work
Sequence of S1P2 (O95136 whole entry, species assumed): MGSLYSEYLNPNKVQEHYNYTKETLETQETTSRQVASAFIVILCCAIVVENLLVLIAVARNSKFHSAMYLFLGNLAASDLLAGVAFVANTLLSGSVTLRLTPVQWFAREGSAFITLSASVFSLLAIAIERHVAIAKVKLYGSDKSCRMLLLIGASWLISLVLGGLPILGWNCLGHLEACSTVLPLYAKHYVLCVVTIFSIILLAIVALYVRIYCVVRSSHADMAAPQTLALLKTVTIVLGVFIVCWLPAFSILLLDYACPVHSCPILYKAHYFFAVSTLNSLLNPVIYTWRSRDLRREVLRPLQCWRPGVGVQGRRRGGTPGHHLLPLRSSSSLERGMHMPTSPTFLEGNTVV

S1P3 [3] = target: T2, S1P3 (Homo sapiens, UniProt Q99500); conditions: cited from earlier work
Target sequence in this assay (Q99500 whole entry, species assumed): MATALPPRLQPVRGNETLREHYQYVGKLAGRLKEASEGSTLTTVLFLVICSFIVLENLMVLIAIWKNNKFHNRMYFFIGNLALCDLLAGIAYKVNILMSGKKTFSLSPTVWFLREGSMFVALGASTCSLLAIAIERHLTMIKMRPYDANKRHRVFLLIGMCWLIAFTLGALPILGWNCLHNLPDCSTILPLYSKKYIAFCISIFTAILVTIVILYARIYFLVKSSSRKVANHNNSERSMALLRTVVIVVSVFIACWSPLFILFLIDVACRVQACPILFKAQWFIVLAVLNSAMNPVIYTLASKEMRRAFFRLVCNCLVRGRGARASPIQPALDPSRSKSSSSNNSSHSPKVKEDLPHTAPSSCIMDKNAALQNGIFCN

S1P1 [4] = target: T3, S1P1 (Homo sapiens, UniProt P21453); conditions: cited from earlier work
T3 sequence (P21453 whole entry, species assumed): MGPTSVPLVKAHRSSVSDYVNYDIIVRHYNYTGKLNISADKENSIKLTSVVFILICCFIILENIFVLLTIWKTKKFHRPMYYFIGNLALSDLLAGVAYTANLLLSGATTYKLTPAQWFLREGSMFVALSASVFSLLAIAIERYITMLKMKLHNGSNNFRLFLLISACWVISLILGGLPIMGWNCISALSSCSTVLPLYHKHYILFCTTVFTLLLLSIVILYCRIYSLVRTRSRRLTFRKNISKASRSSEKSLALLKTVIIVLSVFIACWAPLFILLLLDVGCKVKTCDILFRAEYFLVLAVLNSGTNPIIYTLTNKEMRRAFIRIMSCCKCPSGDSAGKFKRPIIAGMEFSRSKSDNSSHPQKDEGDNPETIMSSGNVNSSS

peripheral lymphocytes = conditions: mice, 24 h after oral dosing; cited from earlier work
[5] = target: recombinant dog S1P1 receptors; conditions: read-out: EC50, agonist of S1P1 receptors; cited from earlier work
S1P4 [6] = target: T1, S1P4; conditions: cited from earlier work; remark: listed apart in the source
[7] = target: recombinant monkey S1P1 receptors; conditions: read-out: EC50, agonist of S1P1 receptors; cited from earlier work
[8] = target: recombinant mouse S1P1 receptors (Mus musculus, UniProt O08530); conditions: read-out: EC50, agonist of S1P1 receptors; cited from earlier work
Sequence of recombinant mouse S1P1 receptors (O08530 whole entry): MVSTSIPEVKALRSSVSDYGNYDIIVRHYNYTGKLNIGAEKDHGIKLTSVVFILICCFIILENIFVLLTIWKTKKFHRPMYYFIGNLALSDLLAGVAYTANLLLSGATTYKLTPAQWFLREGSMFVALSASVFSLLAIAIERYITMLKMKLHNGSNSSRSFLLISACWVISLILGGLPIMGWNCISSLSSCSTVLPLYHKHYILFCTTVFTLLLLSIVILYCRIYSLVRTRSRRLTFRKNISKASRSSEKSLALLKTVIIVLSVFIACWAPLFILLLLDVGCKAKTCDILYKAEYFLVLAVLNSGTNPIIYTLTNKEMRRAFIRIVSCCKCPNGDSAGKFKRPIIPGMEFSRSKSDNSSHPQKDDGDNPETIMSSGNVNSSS

S1P3 [9] = target: T2, S1P3; conditions: cited from earlier work; remark: listed apart in the source
Target sequence in this assay (Q99500 whole entry): as the sequence (Q99500 whole entry, species assumed) above

[10] = target: human Sphingosine-1-phosphate receptor 2 (S1P2 or S1PR2) (Homo sapiens, UniProt O95136); conditions: cited from earlier work
Sequence of human Sphingosine-1-phosphate receptor 2 (S1P2 or S1PR2) (O95136 whole entry): as the sequence (O95136 whole entry, species assumed) above

human S1P5 = human S1P5 (Homo sapiens, UniProt Q9H228); conditions: cited from earlier work
Sequence of human S1P5 (Q9H228 whole entry): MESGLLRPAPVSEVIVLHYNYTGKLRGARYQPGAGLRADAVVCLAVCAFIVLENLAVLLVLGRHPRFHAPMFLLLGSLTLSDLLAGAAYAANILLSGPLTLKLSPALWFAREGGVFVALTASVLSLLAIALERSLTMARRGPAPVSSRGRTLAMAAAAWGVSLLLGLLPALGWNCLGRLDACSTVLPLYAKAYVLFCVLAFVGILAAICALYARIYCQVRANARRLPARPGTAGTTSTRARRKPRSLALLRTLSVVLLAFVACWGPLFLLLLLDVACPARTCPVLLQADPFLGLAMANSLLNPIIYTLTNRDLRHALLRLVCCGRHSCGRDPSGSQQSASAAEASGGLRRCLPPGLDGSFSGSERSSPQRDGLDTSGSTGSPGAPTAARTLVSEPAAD

S1P1 [11] = target: T3, S1P1; conditions: read-out: ED50 value, agonistic activity on S1P1; cited from earlier work
[12] = target: sphingosine-1-phosphate receptor 1 (S1P1) (Homo sapiens, UniProt P21453); conditions: binding; cited from earlier work
Sequence of sphingosine-1-phosphate receptor 1 (S1P1) (P21453 whole entry, species assumed): as the sequence (P21453 whole entry, species assumed) above

S1P3 [13] = target: T2, S1P3; conditions: read-out: ED50 value on S1P3; cited from earlier work
Target sequence in this assay (Q99500 whole entry, species assumed): as the sequence (Q99500 whole entry, species assumed) above

S1P3 [14] = target: T2, S1P3; conditions: cited from earlier work; remark: listed apart in the source
Target sequence in this assay (Q99500 whole entry, species assumed): as above

S1P1 [15] = target: T3, S1P1; conditions: cited from earlier work; remark: listed apart in the source
[16] = tested on: CD20-expressing Raji cell; test: CDC positive control with Rituxan; assay type: cell-based, human
Protocol: Test articles were evaluated for CDC activity, compared to negative control Human IgG4 isotype control, on TL1A-expressing HEK293 target cells. Rituxan (anti-CD20) was used as a positive technical control on CD20-expressing Raji cell. All test articles were used at a final top concentration of 10 μg/mL followed by a five-fold dilution series (7 points total), in addition to a no treatment control, in triplicate. Cells were incubated with test articles for 15 minutes at 37 C, then treated with human complement, at a final concentration of 25%, for 3 hours at 37 C, 5% CO2. Following incubation, cells were washed and resuspended in Propidium Iodide (P.I.) at a final concentration of 5 μg/mL prior to flow cytometry analysis. Total cells were examined by flow cytometry during sample acquisition. Data were plotted on an XY chart, graphing percentage P.I. positive cells against the log of the concentration and fit to a non-linear regression curve. Cell cytotoxicity in the presence of all test articles was not distinguishable from cell cytotoxicity in the presence of isotype control (Table 12).

human whole blood = test: Human cytokine release assay, whole blood; assay type: cell-based

CCCCCCCCc1ccc(CCC(N)(CO)CO)cc1 [FTY720]
disease per histopathology (IL10−/− mice; colonic tissue): reduces disease per histopathology in a dose dependent manner | serum inflammatory cytokines (MSD) (IL10−/− mice; mouse, in vivo): Reduced levels of inflammatory cytokines | body weight loss (IL10−/− mice; single agents, Groups 3-6): alleviates body weight loss in a dose-dependent manner | disease per histopathology ([1]; colonic tissue): reduces disease per histopathology in a dose dependent manner | serum inflammatory cytokines (MSD) ([1]; mouse, in vivo): Reduced levels of inflammatory cytokines | body weight loss ([1]; single agents, Groups 3-6): alleviates body weight loss in a dose-dependent manner

CCCCCCCOc1ccc(CCC(N)(CO)CO)cc1C(F)(F)F [amiselimod, 2-amino-2-{2-[4-(heptyloxy)-3-(trifluoromethyl)phenyl]ethyl}propan-1,3-diol]
agonist activity for S1P4 (S1P4 [2]): minimal agonist activity | agonist activity for S1P2 (S1P2): no distinct agonist activity | agonist activity for S1P3 (S1P3 [3]): no distinct agonist activity

CCCc1ccc(COc2ccc3c(c2)CCC(CN2CC(C(=O)O)C2)=C3C)c(OC)c1 [ceralifimod, 1-({6-[(2-methoxy-4-propylbenzyl)oxy]-1-methyl-3,4-dihydronaphthalen-2-yl}methyl) azetidine-3-carboxylic acid]
selectivity for S1P1 over S1P3 (S1P1 [4]): > 30 000 fold | ED50, peripheral lymphocyte lowering (PLL) test (peripheral lymphocytes): 0.029 mg/kg

O=C(O)C[C@H]1CCc2c1[nH]c1ccc(OCc3ccc(C4CCCC4)c(C(F)(F)F)c3)cc21 [etrasimod, (R)-2-(7-(4-cyclopentyl-3-(trifluoromethyl)benzyloxy)-1,2,3,4-tetrahydrocyclopenta[b]indol-3-yl) acetic acid]
EC50 [5]: 4.19 nM | relative efficacy, % of S1P response (S1P4 [6]): 63% | EC50 [7]: 8.7 nM | EC50 [8]: 3.65 nM | agonist or antagonist activity (S1P3 [9]): neither agonist nor antagonist activity was observed | agonist or antagonist activity [10]: neither agonist nor antagonist activity was observed | relative efficacy, % of S1P response (human S1P5): 73%

NC(CO)(CO)CCc1ccc(Sc2cccc(OCc3ccccc3)c2)cc1Cl [mocravimod, 2-amino-2-{2-[4-(3-benzyloxyphenylthio)-2-chlorophenyl]ethyl}-1,3-propanediol]
EC50 (S1P1 [11]): 0.84 nM | selectivity for S1P1 over S1P2 and S1P5 [12]: 100 fold | EC50 (S1P3 [13]): > 1000 nM

CCC/N=C1\S/C(=C\c2ccc(OC[C@H](O)CO)c(Cl)c2)C(=O)N1c1ccccc1C [ponesimod, (2Z,5Z)-5-[3-chloro-4-[(2R)-2,3-dihydroxypropoxy]benzylidene]-3-(2-methylphenyl)-2-(propylimino)-1,3-thiazolidin-4-one]
potency for S1P3, lower compared with the natural ligand (S1P3 [14]): 150 fold | S1P1 selectivity, higher compared with the natural ligand (S1P1 [15]; S1P1 versus S1P3): approximately 650 fold | potency for S1P1, higher compared with the natural ligand (S1P1 [15]; compared with the natural ligand): 4.4 | EC50 (S1P1 [15]; read-out: half maximal effective concentration (EC50), S1P1 activation): 5.7 nM

Rituxan: anti-CD20 antibody, positive control in the CDC assay
CDC bioactivity / complement-mediated lysis [16]: CDC bioactivity was observed; also recorded: expected increase in complement-mediated lysis

Staphylococcal enterotoxin B [SEB]
cytokine release (IL-2, IL-6, IL-10, TNF, IFN-γ) in whole blood (human whole blood): induced IL-2, IL-6, IL-10, TNF, and IFN-γ release
